# From patent US11129807B2, “Methods of treating schizophrenia” (Sunovion Pharmaceuticals Inc., priority 2017, dated 2021)
# Legend:
# [1] = test system: Pre-pulse Inhibition (PPI) in Mice; test: Pre-pulse inhibition (PPI) of startle in mice;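 also: plus grades count prepulse intensities with significant PPI increase at P below 0.05 and minus means no change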; assay type: in vivo; conditions: 30 min prior to PPI test, male C57Bl/6J mice, vs. vehicle
# Experimental: (§1) Anti-psychotic like activity of the compounds was evaluated in mice using the PCP hyperactivity and Pre-Pulse Inhibition (PPI) models of schizophrenia.
# (§2) Methods: Animals: Male C57Bl/6J mice from Jackson Laboratories (Bar Harbor, Me.) were used. Upon receipt, mice were assigned unique identification numbers (tail marked) and were group housed with 4 mice per cage in OptiMICE ventilated cages. All animals remained housed in groups of four during the remainder of the study. All mice were acclimated to the colony room for at least two weeks prior to testing. During the period of acclimation, mice were examined on a regular basis, handled, and weighed to assure adequate health and suitability. Animals were maintained on a 12/12 light/dark cycle. The room temperature was maintained between 20 and 23° C. with a relative humidity maintained between 30% and 70%. Chow and water were provided ad libitum for the duration of the study. In each test, animals were randomly assigned across treatment groups.
# Prepulse Inhibition of Startle: The acoustic startle is an unconditioned reflex response to an external auditory stimulus. Prepulse inhibition of startle (PPI) refers to the reduction in the startle response caused by the presentation of a low-intensity auditory stimulus prior to the startle stimulus. The PPI paradigm is used for the study of schizophrenia and antipsychotic action due to the similarities between the results from human and rodent studies. […] Various psychotomimetic drugs such as PCP can disrupt PPI. In mice, antipsychotic drugs such as clozapine can reverse the disruption of PPI induced by PCP.
# Mice were placed in the PPI chambers (Med Associates) for a 5 min session of white noise (70 dB) habituation. After the habituation period the test session was initiated. The session started with a habituation block of 6 presentations of the startle stimulus alone, followed by 10 PPI blocks, each of which consisted of 6 different types of trials. Trial types were: ‘null’ (no stimuli), ‘startle’ (120 dB), ‘startle plus prepulse’ (4, 8 and 12 dB over background noise, i.e., 74, 78 or 82 dB) and ‘prepulse’ (82 dB). Trial types were presented in a random order within each block. Each trial started with a 50 ms stimulus-free period during which baseline movements were recorded. This was followed by a subsequent 20 ms period during which the prepulse stimulus was presented and responses to the prepulse measured. After a further 100 ms period, the startle stimulus was presented for 40 ms and responses recorded for 100 ms from startle onset. Responses were sampled every ms. The inter-trial interval was variable with an average of 15 s (range from 10 to 20 s). In ‘startle’ trials the basic auditory startle response was measured. The basic startle response was calculated as the mean startle response of all ‘startle’ trials (i.e., excluding the first habituation block). In ‘startle plus prepulse’ trials the degree of inhibition of the normal startle was calculated and expressed as a percentage of the basic startle response.
# Mice were treated with vehicle, haloperidol (1 mg/kg; i.p) or test compound 30 min prior to PPI test. The PPI enclosures were cleaned following each test.
# [2] = test system: PCP-Induced Hyperactivity Responses in Mice; test: PCP-induced hyperactivity (open field) in mice;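 also: plus means significant inhibition of PCP hyperactivity at P below 0.05 and minus means none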; assay type: in vivo; conditions: male C57Bl/6J mice, vs. vehicle + PCP
# Experimental: as §1, §2
# The analysis was configured to divide the open field into a center and periphery zone. Distance traveled was measured from horizontal beam breaks as the mouse moved whereas rearing activity was measured from vertical beam breaks.
# Mice were injected with vehicle, test compound, or clozapine (1 mg/kg; i.p) and placed in the OF chambers for 30 min measurement of baseline activity. Mice were then injected with either water or PCP (5 mg/kg; i.p) and placed back in the OF chambers for a 60-minute session. At the end of each OF test session the OF chambers were thoroughly cleaned.
# [3] = 10 mg/kg Compound + PCP (5 mg/kg; i.p)
# [4] = 30 mg/kg Compound + PCP (5 mg/kg; i.p)
# [5] = 100 mg/kg Compound + PCP (5 mg/kg; i.p)
# [6] = 0.3 mg/kg Compound + PCP (5 mg/kg; i.p)
# [7] = 1 mg/kg Compound + PCP (5 mg/kg; i.p)
# [8] = 3 mg/kg Compound + PCP (5 mg/kg; i.p)
Compound,Effect on Pre-pulse Inhibition (PPI) ([1]; 10 mg/kg),Effect on Pre-pulse Inhibition (PPI) ([1]; 30 mg/kg),Effect on Pre-pulse Inhibition (PPI) ([1]; 100 mg/kg),"Total Distance Traveled (cm) [2, 3]","Total Distance Traveled (cm) [2, 4]","Total Distance Traveled (cm) [2, 5]","Total Distance Traveled (cm) [2, 6]","Total Distance Traveled (cm) [2, 7]","Total Distance Traveled (cm) [2, 8]"
NCC1OCCc2sccc21 (stereo not drawn) [Compound 1],−,+++,+++,+,+,−,,,
NC[C@@H]1OCCc2sccc21 [Compound 2],−,−,+++,+,+,−,,,
NC[C@H]1OCCc2sccc21 [Compound 3],+++,+++,−,−,−,−,,,
CNCC1OCCc2sccc21 (stereo not drawn) [Compound 4],+++,−,+++,+,+,+,+,+,+
CNCC1OCCc2sc(C)cc21 (stereo not drawn) [Compound 5],−,+++,+++,+,+,+,,,
CCc1cc2c(s1)CCOC2CNC (stereo not drawn) [Compound 10],+++,+++,+++,+,+,+,,,
CCNCC1OCCc2sccc21 (stereo not drawn) [Compound 13],−,−,+++,,,,,,
CNC[C@@H]1OCCc2sccc21 [Compound 27],−,−,−,+,+,+,−,−,−
CNC[C@H]1OCCc2sccc21 [Compound 28],−,+++,+++,+,+,+,+,+,+
CNC[C@@H]1OCCc2sc(C)cc21 [Compound 57],−,−,++,+,+,+,,,
CNC[C@H]1OCCc2sc(C)cc21 [Compound 58],+++,+,+++,+,+,+,,,
